ChEMBL document CHEMBL5725746, “Spiro-thiazolones” (2018)

Molecular target: Vasopressin V1a receptor (Homo sapiens, UniProt P37288)
Test: competition binding assay: The human V1a receptor was cloned by RT-PCR from total human liver RNA. The coding sequence was subcloned in an expression vector after sequencing to confirm the identity of the amplified sequence. […] Cell membranes were prepared from HEK293 cells transiently transfected with the expression vector and grown in 20 liter fermenters with the following protocol.50 g of cells are re-suspended in 30 ml freshly prepared ice cold Lysis buffer (50 mM HEPES, 1 mM EDTA, 10 mM MgCl2 adjusted to pH=7.4+complete cocktail of protease inhibitor (Roche Diagnostics)). Homogenized with Polytron for 1 min and sonicated on ice for 2×2 minutes at 80% intensity (Vibracell sonicator). The preparation is centrifuged 20 min at 500 g at 4° C., the pellet is discarded and the supernatant centrifuged 1 hour at 43,000 g at 4° C. (19,000 rpm). The pellet is re-suspended in 12.5 ml Lysis buffer+12.5 ml Sucrose 20% and homogenized using a Polytron for 1-2 min. The protein concentration is determined by the Bradford method and aliquots are stored at −80° C. until use. For binding studies 60 mg Yttrium silicate SPA beads (Amersham) are mixed with an aliquot of membrane in binding buffer (50 mM Tris, 120 mM NaCl, 5 mM KCl, 2 mM CaCl2, 10 mM MgCl2) for 15 minutes with mixing. […]

Vasopressin V1a receptor, sequence (P37288 whole entry): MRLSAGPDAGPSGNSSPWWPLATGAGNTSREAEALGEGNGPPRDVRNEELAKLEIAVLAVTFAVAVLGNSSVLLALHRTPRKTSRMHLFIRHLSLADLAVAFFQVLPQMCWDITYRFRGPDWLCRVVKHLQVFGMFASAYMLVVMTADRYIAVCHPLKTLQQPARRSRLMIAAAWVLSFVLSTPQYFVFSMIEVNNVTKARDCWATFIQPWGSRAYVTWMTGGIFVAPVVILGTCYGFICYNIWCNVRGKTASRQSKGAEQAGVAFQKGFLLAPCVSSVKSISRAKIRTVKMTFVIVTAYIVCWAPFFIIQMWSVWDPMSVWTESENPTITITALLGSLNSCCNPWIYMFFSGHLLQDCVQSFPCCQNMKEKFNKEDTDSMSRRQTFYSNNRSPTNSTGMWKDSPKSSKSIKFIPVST

Ki [nM]	Compound
1	C/C(=C1/SC(N2CCC3(CC2)OCc2ccccc23)=NC1=O)c1nccs1
3.16	C/C(=C1\SC(N2CCC3(CC2)OCc2ccccc23)=NC1=O)c1ccc(Cl)nc1
